Measurements: PubChem BioAssay (NCI)
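Five compound concentrations were applied to cells in 96-well plates for 48 hours; endpoints were derived by simple linear interpolation of the resulting dose-response curve. TGI marks complete inhibition of growth.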

Key:
Experiment in all cases: NCI anticancer screen, dose series, 48 h
IGROV1 ovarian = system: IGROV1 ovarian
NCI-H460 lung = system: NCI-H460 lung
SF-539 CNS = system: SF-539 CNS
SW-620 colon = system: SW-620 colon
HCT-15 colon = system: HCT-15 colon
OVCAR-3 ovarian = system: OVCAR-3 ovarian
M14 melanoma = system: M14 melanoma
NCI-H226 lung = system: NCI-H226 lung
KM12 colon = system: KM12 colon
LOX IMVI melanoma = system: LOX IMVI melanoma
COLO 205 colon = system: COLO 205 colon
SK-OV-3 ovarian = system: SK-OV-3 ovarian
MCF7 breast = system: MCF7 breast
EKVX NSCLC = system: EKVX NSCLC
HCC-2998 colon = system: HCC-2998 colon
A549 NSCLC = system: A549 NSCLC
TK-10 renal = system: TK-10 renal
UO-31 renal = system: UO-31 renal

Structure (SMILES)	TGI (IGROV1 ovarian) [µM]	TGI (NCI-H460 lung) [µM]	TGI (SF-539 CNS) [µM]	TGI (SW-620 colon) [µM]	TGI (HCT-15 colon) [µM]	TGI (OVCAR-3 ovarian) [µM]	TGI (M14 melanoma) [µM]	TGI (NCI-H226 lung) [µM]	TGI (KM12 colon) [µM]	TGI (LOX IMVI melanoma) [µM]	TGI (COLO 205 colon) [µM]	TGI (SK-OV-3 ovarian) [µM]	TGI (MCF7 breast) [µM]	TGI (EKVX NSCLC) [µM]	TGI (HCC-2998 colon) [µM]	TGI (A549 NSCLC) [µM]	TGI (TK-10 renal) [µM]	TGI (UO-31 renal) [µM]
O=C(CCc1ccc(O)c(O)c1)NCCc1cc(O)c(O)c(O)c1	> 100	40.8	> 100	35.5	32.1	34.5	48.1	> 100	> 100	31.7	> 100	> 100	21.7	53	> 100	54.2	> 100	> 100
Cc1cnc2c(c1)C(=O)N(c1ccc([N+](=O)[O-])cc1)S2(=O)=O	> 100	> 100	> 100	> 100	> 100	> 100	> 100	78.5	> 100	> 100	> 100	> 100	> 100	> 100	> 100	> 100	> 100	> 100
C(=N\NC1=NCCN1)/c1cccc2cc3ccncc3nc12	15.8	20.5	21.2	6.91	13.1	17.1	28.3	21.2	17.9	3.39	15.5	23.5	14.5	14.9	18.3	20.2	22.2	14.2
CCOC(=O)Nc1n[nH]nc1Cl	> 100	> 100	> 100	> 100	> 100	> 100	> 100	> 100	> 100	> 100	> 100	> 100	> 100	> 100	> 100	> 100	> 100	> 100
CCCCCCCCCCCCCCCC(=O)Nc1ccn(C2CCC(COP(=O)(O)OCC3OC(n4cc(F)c(=O)[nH]c4=O)CC3OC(C)=O)O2)c(=O)n1 (centres undefined)	> 100	> 100	> 23.3	> 52.5	> 100	59	28.1	> 100	34.8	39.8	28.5	> 90.2	44.1	> 100	> 48.2	> 54.2	> 76.7	28.9
O=C(O)c1cccc(OCCOc2cccc(C(=O)O)c2[N+](=O)[O-])c1[N+](=O)[O-]	> 100	> 100	> 100	> 100	> 100	> 100	> 100	> 100	> 100	> 100	> 100	> 100	> 100	> 100	> 100	> 100	> 100	> 100
COc1cc2c(cc1O)Cc1c-2[n+](C)cc2cc(OC)c(OC)cc12	> 100	> 100	7.46	> 100	> 100	> 100	> 100	> 100	> 100	> 100	> 100	> 100	> 100	> 100	> 100	> 100	> 100	> 100
C=C1CC(C)(COc2cc(=O)oc3ccccc23)OC1=O (centres undefined)	12.5	27.5	12.6	11.4	13	16.7	2.95	29.1	27.3	11.5	5.81	22.5	4.28	29.4	42.9	28.2	5.16	24.8
Cc1c(-c2nc(N)c(C#N)c(N)c2C#N)c(=O)oc2ccccc12	> 100	> 100	> 100	> 100	> 100	> 100	> 100	> 100	> 100	> 100	> 100	> 100	> 100	> 100	> 100	> 100	> 100	> 100
O=C(/C=C/c1ccc(O)c(O)c1)NC(COC(=O)/C=C/c1ccc(O)c(O)c1)C(=O)O (centres undefined)	> 100	> 100	> 100	> 100	> 100	> 100	> 100	> 100	> 100	> 100	> 100	> 100	> 100	> 100	> 100	> 100	> 100	> 100
Nc1nc(Br)nc2ncn(C3CC(O)C(CO)O3)c12 (centres undefined)	> 100	> 100	> 100	> 100	> 100	> 100	33.4	> 100	> 100	> 100	> 100	> 100	> 100	> 100	> 100	> 100	> 100	> 100
[N-]=[N+]=CC(=O)OCC1NC(=O)C(COC(=O)C=[N+]=[N-])NC1=O (centres undefined)	> 100	> 100	> 100	> 100	> 100	> 100	> 100	> 100	> 100	> 100	> 100	> 100	> 100	> 100	> 100	> 100	> 100	> 100
CCC(c1ccc(OC)cc1)C1NC(=S)NC1=O (centres undefined)	> 50	> 50	> 50	> 50	> 50	> 50	> 50	> 50	> 50	> 50	> 50	> 50	> 50	> 50	> 50	> 50	> 50	> 50
